Tests used:
[1] = test system: HCV 1b replicon cells (Huh-7.5.1); test: Anti-HCV assay, HCV 1b replicon cells with luciferase reporter; format: cell-based, hepatitis C virus (HCV) subtype 1b; details: HCV 1b replicon cells; for EC50: mean ± SD; for inhibition at 10 µM / inhibition at 25 µM: Huh-7.5.1, 72 h, 72 h; for inhibition at 10 µM: inhibitory rate at 10 μM, read-out: HCV Inhibition 10 μM; for inhibition at 25 µM: inhibitory rate at 25 μM, read-out: HCV Inhibition 25 μM
Procedure: (§1) The HCV replicons were validated as convenient and effective models for testing the anti-HCV activity. Since HCV subtype 1b is one of the major subtypes worldwide, especially in China, the replicon model from the Huh-7.5.1 cell line integrating HCV 1b genome encoding the nonstructural proteins was chosen to evaluate the anti-HCV activities of 3-hydroxyquinazoline-2,4(1H,3H)-diones. The inhibitory rates of the compounds on HCV replicon cells were determined at concentrations of 25 μM and 10 μM, respectively. The broad-spectrum antiviral drug ribavirin (RBV) and the NS5B nucleoside inhibitor 2′-C-methyladenosine (2CMA) were selected as positive controls. The cytotoxicity of these compounds on replicon cells was determined using the cell counting kit-8 (CCK-8) assay.
HCV 1b replicon cells (Huh-7.5.1) containing luciferase reporter gene were kindly provided by Prof. Zhenghong Yuan (Key Laboratory of Medical Molecular Virology, Fudan University, Shanghai, China). The replicon cells were plated at 1.5 × 10^4 cells per well in a 48-well plate (Corning Inc., New York, NY, USA) at 5% CO2/37 °C. The culture medium was Dulbecco’s Modified Eagle Medium (DMEM, pH 7.3, Shanghai XP Biomed Ltd., Shanghai, China) containing 10% fetal bovine serum (Shanghai XP Biomed Ltd., Shanghai, China), 10^5 U/L penicillin, 0.1 g/L streptomycin, and 0.5 μg/mL blasticidin. After 12 h, the culture medium in each well was replaced with 300 μL of pre-prepared fresh culture medium containing test compound (dissolved in DMSO with specific concentration) or blank DMSO. The final concentration of DMSO in the culture medium in the plate was 0.1%. Each group was tested at least twice in parallel. Ribavirin and 2CMA were used as the positive controls. After incubating the drug-added plate at 5% CO2/37 °C for 72 h, the medium was removed, and each well was washed with 300 μL of phosphate buffer solution (PBS, Shanghai XP Biomed Ltd., Shanghai, China). The cells in each well were then lysed with 50 μL of 1× lysis buffer (E2820, Promega, Madison, WI, USA). Subsequently, 50 μL of 1× luciferase assay substrate (E2820, Promega, Madison, WI, USA) was mixed with 20 μL of the harvested cell lysates.
The inhibitory rates under at least six different concentration gradients were imported into GraphPad Prism 7.0 software to calculate the anti-HCV EC50 values of the compounds using the nonlinear fitting method.

[2] = Cytotoxicity assay (CCK-8) on replicon cells; format: cell-based; details: human, HCV 1b replicon cells (Huh-7.5.1); 50% cytotoxic concentration; CCK-8, HCV 1b replicon cells, 72 h
Procedure: as §1
The HCV 1b replicon cells were incubated and treated with test compounds or blank DMSO in a 48-well plate using the same materials and methods as described in the experimental procedure of anti-HCV assay. The final concentration of DMSO in each well was 0.1%. After 72 h of drug treatment, the culture medium in the well plate was removed, and cells in each well were washed with 300 μL of PBS. A total of 300 μL of pre-prepared fresh culture medium containing 30 μL CCK-8 reagent (Donjindo, Kumamoto, Japan) was added to each well, and the plate was incubated at 5% CO2/37 °C for 2 h. The OD (optical density) value of each well at 450 nm was measured using a multi-function microplate reader (SpectraMax M5, Molecular Devices, San Jose, CA, USA). The death ratio of each well was calculated using the following equation, in which ODcompound or ODblank represents the measured OD value of the compound group or the blank control (DMSO), respectively:death ratio = (1−ODcompound/ODblank) × 100%(2)
The cell death data under at least six different concentration gradients were imported into GraphPad Prism 7.0.0 software (GraphPad Software Inc., San Diego, CA, USA), and the CC50 (50% cytotoxic concentration) values were calculated using the nonlinear fitting method.

[3] = test system: HCV 1b replicon cells (Huh-7.5.1); test: Anti-HCV assay, HCV 1b replicon cells with luciferase reporter; format: cell-based, hepatitis C virus (HCV) subtype 1b; details: Hepatitis C virus, Huh-7.5.1, 72 h, inhibitory rate at 5 μM
[4] = target: T1, C-terminal His-tagged NS5BΔ21 from HCV 1b subtype (Hepatitis C virus genotype 1b, UniProt Q913V3); test: Thermal shift assay with NS5B protein; format: binding; details: Tm of compound group minus Tm of blank control, mean ± SD, three experiments
T1 construct: C-terminal His-tagged NS5BΔ21 from HCV 1b subtype; His tag (C); made in house
T1 sequence (Q913V3 2420-2989, stated change not applied): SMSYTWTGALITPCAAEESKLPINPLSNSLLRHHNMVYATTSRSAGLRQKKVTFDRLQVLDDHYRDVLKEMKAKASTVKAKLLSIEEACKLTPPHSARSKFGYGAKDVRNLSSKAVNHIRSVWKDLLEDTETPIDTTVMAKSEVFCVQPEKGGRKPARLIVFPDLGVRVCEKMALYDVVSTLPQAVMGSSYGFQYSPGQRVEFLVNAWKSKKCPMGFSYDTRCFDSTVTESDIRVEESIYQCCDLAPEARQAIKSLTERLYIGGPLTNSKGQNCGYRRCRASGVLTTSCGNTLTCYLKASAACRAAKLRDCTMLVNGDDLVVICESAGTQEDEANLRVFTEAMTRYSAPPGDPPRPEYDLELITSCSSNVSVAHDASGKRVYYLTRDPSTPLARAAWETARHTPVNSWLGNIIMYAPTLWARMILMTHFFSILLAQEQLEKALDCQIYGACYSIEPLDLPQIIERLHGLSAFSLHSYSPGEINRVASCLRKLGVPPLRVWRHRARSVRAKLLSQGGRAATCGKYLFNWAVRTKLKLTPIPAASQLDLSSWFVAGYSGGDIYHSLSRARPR
Text: The stability of a protein system is enhanced after binding to its specific ligand, leading to an increase in the melting temperature (Tm). Taking advantage of this feature, the thermal shift assay was extensively used to assess the binding of small molecules to the protein targets. The metal ion chelators were thought to exert an anti-HCV effect by chelating with Mg^2+ in the catalytic center of NS5B [34, 36, 38]. […] C-terminal His-tagged NS5BΔ21 from HCV 1b subtype was used as the protein in the experiment. Compared with the blank control (DMSO), the fluorescence–temperature curves of the NS5B system in the presence of 21e (Figure 3A) and 21k (Figure 3B) at 50 μM, 100 μM, and 200 μM all shifted to the right of the axis. The Tm values of 21e and 21k increased in a concentration-dependent manner, presenting higher values than that of the blank control (Tm = 63.5 °C) at all tested concentrations.
C-terminal His-tagged NS5BΔ21 from HCV 1b subtype was expressed from pET28a HCR6 plasmid in our lab and dissolved in a Tris-HCl buffer (20 mm, pH 7.2) containing 150 mm NaCl. Then, 1 μL of corresponding concentration (1 mm, 2 mm, or 4 mm) of the test compound in DMSO or 1 μL DMSO alone was added to each well of a 96-well PCR plate (Shanghai Sangon Biotech Co., Ltd., Shanghai, China). Subsequently, 19 μL of pre-prepared PBS solution containing 10 mm MgCl2, 10× SYPRO® orange protein gel stain (Sigma-Aldrich, St. Louis, MO, USA), and 5 μM NS5B protein was added to each well and mixed. The final concentration of DMSO in each well was 5%. The PCR plate was covered with a high-permeable film, incubated at room temperature for 10 min, and then placed on the Applied Biosystems^TM 7500 Real-Time PCR System (Thermo Fisher Scientific, Waltham, MA, USA). The temperature was increased to 90 °C gradually, and the change curve of fluorescence intensity versus system temperature was recorded.

[5] = Hepatitis C virus, Huh-7.5.1, 50% effective concentration

SMILES	EC50 [1, 5]	inhibition at 10 µM ([1]; Hepatitis C virus)	CC50 at 72 h [2]	inhibition at 5 µM [3]	inhibition at 25 µM ([1]; Hepatitis C virus)	ΔTm at 50 µM ([4]; compound 50 μM)	ΔTm at 100 µM ([4]; compound 100 μM)	ΔTm 200 μM ([4]; compound 200 μM)	ΔTm at 200 µM ([4]; read-out: ΔTm 200 μM, compound 200 μM)	EC50 ([1]; 50% effective concentration)
COc1ccc(-c2ccc3[nH]c(=O)n(O)c(=O)c3c2)cc1 [21c, 3-Hydroxy-6-(4-methoxyphenyl)quinazoline-2,4(1H,3H)-dione]	7.2 ± 0.8 µM	48.2%	14.8 ± 5.3 µM	11.1%						
O=c1[nH]c2cc(-c3ccc(F)c(Cl)c3)ccc2c(=O)n1O [21l, 7-(3-Chloro-4-fluorophenyl)-3-hydroxyquinazoline-2,4(1H,3H)-dione]	7.9 ± 1 µM	49.7%	40.7 ± 3.9 µM	25.9%						
O=c1[nH]c2cc(-c3ccc(F)cc3)ccc2c(=O)n1O [21f, 7-(4-Fluorophenyl)-3-hydroxyquinazoline-2,4(1H,3H)-dione]	3.1 ± 0.1 µM	78.8%	4.1 ± 0.6 µM	73.4%						
O=c1[nH]c2cc(-c3ccco3)ccc2c(=O)n1O [21s, 7-(Furan-2-yl)-3-hydroxyquinazoline-2,4(1H,3H)-dione]	4 ± 0.5 µM	72.6%	16.3 ± 0.6 µM	56.2%						
O=c1[nH]c2c(-c3ccccc3)cccc2c(=O)n1O [21u, 3-Hydroxy-8-phenylquinazoline-2,4(1H,3H)-dione]		27.5%		1.8%	40.9%					
Nc1ncnc2c1ncn2[C@@H]1O[C@H](COP(=O)(O)OP(=O)(O)O)[C@@H](O)[C@H]1O [ADP, adenosine diphosphate, reference compound]						0.44 ± 0.11 °C	0.62 ± 0.05 °C	0.88 ± 0.06 °C	0.87 °C	
O=c1[nH]c2cc(Br)ccc2c(=O)n1O [compound 19, 7-Bromo-3-hydroxyquinazoline-2,4(1H,3H)-dione]	19 ± 1.8 µM	41.1%	37.6 ± 2.6 µM	23.5%	72%					
Cn1c(=O)n(O)c(=O)c2ccc(-c3ccc(F)cc3)cc21 [23c, 7-(4-Fluorophenyl)-3-hydroxy-1-methylquinazoline-2,4(1H,3H)-dione]	4.6 ± 0.5 µM	79.1%	8.1 ± 0.2 µM	40.6%						
Nc1cccc(-c2ccc3c(=O)n(O)c(=O)[nH]c3c2)c1 [21j, 7-(3-Aminophenyl)-3-hydroxyquinazoline-2,4(1H,3H)-dione]	7.3 ± 1.3 µM	51%	13 ± 0.8 µM	16.1%						
O=c1[nH]c2ccc(-c3ccc(F)cc3)cc2c(=O)n1O [21b, 6-(4-Fluorophenyl)-3-hydroxyquinazoline-2,4(1H,3H)-dione]	6.1 ± 0.1 µM	79.7%	8 ± 2.2 µM	47.7%						
O=c1[nH]c2ccc(-c3ccccc3)cc2c(=O)n1O [21a, 3-Hydroxy-6-phenylquinazoline-2,4(1H,3H)-dione]	4.3 ± 0.7 µM	65.4%	5.5 ± 1 µM	35.6%						
O=C(Cn1c(=O)n(O)c(=O)c2ccccc21)Nc1ccc(C(F)(F)F)cc1 [10p, 2-(3-Hydroxy-2,4-dioxo-3,4-dihydroquinazolin-1(2H)-yl)-N-(4-(trifluoromethyl)phenyl)acetamide]	< 10 µM	41.4%	15.3 ± 0.7 µM		64.9%					8.1 ± 0.1 µM
O=c1[nH]c2cc(-c3cccnc3)ccc2c(=O)n1O [21r, 3-Hydroxy-7-(pyridin-3-yl)quinazoline-2,4(1H,3H)-dione]		26.9%		-5.5%	65.4%					
O=c1[nH]c2ccc(-c3cccc([N+](=O)[O-])c3)cc2c(=O)n1O [21d, 3-Hydroxy-6-(3-nitrophenyl)quinazoline-2,4(1H,3H)-dione]	4.8 ± 0.8 µM	78.5%	6.6 ± 1.5 µM	71.1%						
Nc1ccccc1-c1ccc2c(=O)n(O)c(=O)[nH]c2c1 [21g, 7-(2-Aminophenyl)-3-hydroxyquinazoline-2,4(1H,3H)-dione]	8.8 ± 1.8 µM	64.7%	16.2 ± 0.7 µM	24.7%						
Cn1c(=O)n(O)c(=O)c2ccc(-c3ccccc3)cc21 [23b, 3-Hydroxy-1-methyl-7-phenylquinazoline-2,4(1H,3H)-dione]	3.9 ± 1 µM	79.5%	6.7 ± 0.3 µM	39.2%						
Cn1c(=O)n(O)c(=O)c2cc(-c3cccc([N+](=O)[O-])c3)ccc21 [23a, 3-Hydroxy-1-methyl-6-(3-nitrophenyl)quinazoline-2,4(1H,3H)-dione]	2.3 ± 0.1 µM	66.5%	5.2 ± 0.1 µM							
N#Cc1ccc(NC(=O)Cn2c(=O)n(O)c(=O)c3ccccc32)cc1 [10n, N-(4-Cyanophenyl)-2-(3-hydroxy-2,4-dioxo-3,4-dihydroquinazolin-1(2H)-yl)acetamide]	< 10 µM	58%	10.6 ± 0.3 µM		66%					6.4 ± 0.3 µM
Cc1ccc(F)cc1-c1ccc2c(=O)n(O)c(=O)[nH]c2c1 [21p, 7-(5-Fluoro-2-methylphenyl)-3-hydroxyquinazoline-2,4(1H,3H)-dione]	9.9 ± 0.6 µM	44.9%	13.4 ± 5.2 µM							
